Values of other authors, collected in patent US9320732B2, “1,2,5-oxadiazoles as inhibitors of indoleamine 2,3-dioxygenase” (Incyte Corporation, priority 2008, dated 2016).

Experiments:
[1] = system: allogeneic concepti in pregnant mice; conditions: pregnant mice exposed to 1MT
[2] = system: LLC tumors; conditions: C57Bl/6 mice, versus placebo
[3] = system: P815 tumor; conditions: immune-competent pre-immunized mice

Compound: Cn1cc(C[C@H](N)C(=O)O)c2ccccc21 [Example 1-MT, 1-methyl-tryptophan]
- rejection of allogeneic concepti [1]: rapid, T cell-induced rejection of all allogeneic concepti
- formation of LLC tumors [2]: markedly delayed
- growth of tumors in pre-immunization model [3]: inhibited
